We go through two compounds from ChEMBL document CHEMBL4196165, “Catenulobactins A and B, Heterocyclic Peptides from Culturing Catenuloplanes sp. with a Mycolic Acid-Containing Bacterium” (J Nat Prod, 2018).

Calls of active or inactive are those of the source. The calls are words filed in the database; no cut-off is given here.

A short description of data set [1]: Metal chelating activity assessed as compound-Fe3+ complex formation after 1 hr by LC/MS analysis.
Data set [2] has as its system P388. The experiment in a line: Cytotoxicity against mouse P388 cells up to 100 uM after 4 days by MTT assay. It is filed as functional, cell-based. (In general: Tetrazolium assays rely on reduction of a dye to a coloured formazan, in cell work by metabolically active cells.)
Data set [3] is described as follows: Stability of the compound in physiological conditions at pH > 7. It is filed as physicochemical.
Data set [4] deals with P388. The experiment in a line: Cytotoxicity against mouse P388 cells after 4 days by MTT assay. The conditions noted are these: P388, 96 h. It is filed as functional, cell-based.

Regarding `C[C@@H]1ON(CCC[C@@H](NC(=O)[C@H]2N=C(c3ccccc3O)O[C@@H]2C)C(=O)O)C(=O)[C@H]1NC(=O)c1ccccc1O`, the result (in data set [1]; in the data set with P388 [2]) was inactive.
Usually IC50 stands for the point on the concentration scale where inhibition reaches its midpoint. Read a low IC50 as greater potency. Turning to `C[C@H]1OC(c2ccccc2O)=N[C@@H]1C(=O)N[C@H](CCCN(O)C(=O)[C@H]1N=C(c2ccccc2O)O[C@@H]1C)C(=O)O`, the Stability result in data set [3] is on record as “Unstable”. Besides, the IC50 in the data set on P388 [4] was 22.4 µM. Moreover, in data set [1], the outcome was Active.
